Publication PMC10092094 (Chemmedchem, 2022)
“Also recorded” adds a separate entry of the source.

Legend:
[1] = molecular target: T1, OGG1 (Homo sapiens, UniProt O15527); experiment: biochemical
[2] = molecular target: T1, OGG1; experiment: Differential scanning fluorimetry; type: binding
[3] = IC50 (CI95), biochemical inhibition, confidence interval 95 in parentheses
[4] = confidence interval 95 in parentheses
[5] = IC50, biochemical inhibition, single replicate

T1 sequence (O15527 whole entry): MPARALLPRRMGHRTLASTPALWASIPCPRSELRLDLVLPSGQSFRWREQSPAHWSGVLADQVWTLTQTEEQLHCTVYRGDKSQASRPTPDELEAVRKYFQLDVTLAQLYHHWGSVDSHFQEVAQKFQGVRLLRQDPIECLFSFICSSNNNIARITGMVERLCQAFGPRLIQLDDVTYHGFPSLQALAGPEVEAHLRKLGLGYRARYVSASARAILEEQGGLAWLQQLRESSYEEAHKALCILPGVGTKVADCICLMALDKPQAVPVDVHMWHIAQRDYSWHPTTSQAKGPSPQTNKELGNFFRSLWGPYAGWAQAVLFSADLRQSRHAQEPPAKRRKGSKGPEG

| Compound | IC50 [1, 3] [nM] | DSF stabilization (ΔT) [2] [K] | also measured |
| --- | --- | --- | --- |
| Cc1ccc(NC(=O)N2CCC(n3c(=O)[nH]c4ccccc43)CC2)cc1 [Compound 4, N‐(4‐methylphenyl)‐4‐(2‐oxo‐2,3‐dihydro‐1H‐1,3‐benzodiazol‐1‐yl)piperidine‐1‐carboxamide] | 19900 | 3.1 | – |
| O=C(Nc1ccc(Cl)cc1)N1CCC(n2c(=O)[nH]c3ccccc32)CC1 [Compound 6, N‐(4‐chlorophenyl)‐4‐(2‐oxo‐2,3‐dihydro‐1H‐1,3‐benzodiazol‐1‐yl)piperidine‐1‐carboxamide] | 5500 | 4.6 | IC50 ([1]; IC50 of HTS hit, concentration-response of screening hits): 10000 nM |
| O=C(Nc1ccc(Br)cc1)N1CCC(n2c(=O)[nH]c3ccccc32)CC1 [Compound 7, N‐(4‐bromophenyl)‐4‐(2‐oxo‐2,3‐dihydro‐1H‐1,3‐benzodiazol‐1‐yl)piperidine‐1‐carboxamide] | 7000 | 2.1 | – |
| O=C(Nc1ccc(I)cc1)N1CCC(n2c(=O)[nH]c3ccccc32)CC1 [Compound 8, N‐(4‐iodophenyl)‐4‐(2‐oxo‐2,3‐dihydro‐1H‐1,3‐benzodiazol‐1‐yl)piperidine‐1‐carboxamide] | 2900 | 2.4 | – |
| O=C(Nc1ccc(Cl)c(Cl)c1)N1CCC(n2c(=O)[nH]c3ccccc32)CC1 [Compound 9, N‐(3,4‐dichlorophenyl)‐4‐(2‐oxo‐2,3‐dihydro‐1H‐1,3‐benzodiazol‐1‐yl)piperidine‐1‐carboxamide] | 2900 | 4.7 | – |
| O=C(Nc1ccccc1)N1CCC(n2c(=O)[nH]c3cc(Cl)ccc32)CC1 [Compound 11, 4‐(5‐chloro‐2‐oxo‐2,3‐dihydro‐1H‐1,3‐benzodiazol‐1‐yl)‐N‐phenylpiperidine‐1‐carboxamide] | – | 3.3 | – |
| O=C(Nc1cccc(F)c1)N1CCC(n2c(=O)[nH]c3cc(Cl)ccc32)CC1 [Compound 12, 4‐(5‐chloro‐2‐oxo‐2,3‐dihydro‐1H‐1,3‐benzodiazol‐1‐yl)‐N‐(3‐fluorophenyl)piperidine‐1‐carboxamide] | 35100 | 2.4 | – |
| O=C(Nc1ccc(F)cc1)N1CCC(n2c(=O)[nH]c3cc(Cl)ccc32)CC1 [Compound 15, 4‐(5‐chloro‐2‐oxo‐2,3‐dihydro‐1H‐1,3‐benzodiazol‐1‐yl)‐N‐(4‐fluorophenyl)piperidine‐1‐carboxamide] | – | – | IC50 (CI95), biochemical inhibition [1, 4]: no effect |
| O=C(Nc1ccc(Cl)cc1)N1CCC(n2c(=O)[nH]c3cc(Cl)ccc32)CC1 [Compound 16, 4‐(5‐chloro‐2‐oxo‐2,3‐dihydro‐1H‐1,3‐benzodiazol‐1‐yl)‐N‐(4‐chlorophenyl)piperidine‐1‐carboxamide] | 2000 | 3.8 | – |
| O=C(Nc1ccc(Br)cc1)N1CCC(n2c(=O)[nH]c3cc(Cl)ccc32)CC1 [Compound 17, 4‐(5‐chloro‐2‐oxo‐2,3‐dihydro‐1H‐1,3‐benzodiazol‐1‐yl)‐N‐(4‐bromophenyl)piperidine‐1‐carboxamide] | – | 4.1 | IC50 [1, 5]: 1600 nM |
| O=C(Nc1ccc(I)cc1)N1CCC(n2c(=O)[nH]c3cc(Cl)ccc32)CC1 [Compound 18, 4‐(5‐chloro‐2‐oxo‐2,3‐dihydro‐1H‐1,3‐benzodiazol‐1‐yl)‐N‐(4‐iodophenyl)piperidine‐1‐carboxamide] | – | 1.6 | – |
| O=C(Nc1ccc(Cl)c(Cl)c1)N1CCC(n2c(=O)[nH]c3cc(Cl)ccc32)CC1 [Compound 19, 4‐(5‐chloro‐2‐oxo‐2,3‐dihydro‐1H‐1,3‐benzodiazol‐1‐yl)‐N‐(3,4‐dichlorophenyl)piperidine‐1‐carboxamide] | – | 3.1 | – |
| Cc1cccc2c1[nH]c(=O)n2C1CCN(C(=O)Nc2ccc(I)cc2)CC1 [Compound 20, 4‐(4‐methyl‐2‐oxo‐2,3‐dihydro‐1H‐1,3‐benzodiazol‐1‐yl)‐N‐(4‐iodophenyl)piperidine‐1‐carboxamide] | 630 | 3.8 | – |
| Cc1ccc2c(c1)[nH]c(=O)n2C1CCN(C(=O)Nc2ccc(I)cc2)CC1 [Compound 21, 4‐(5‐methyl‐2‐oxo‐2,3‐dihydro‐1H‐1,3‐benzodiazol‐1‐yl)‐N‐(4‐iodophenyl)piperidine‐1‐carboxamide] | 1700 | 3.8 | – |
| Cc1ccc2[nH]c(=O)n(C3CCN(C(=O)Nc4ccc(I)cc4)CC3)c2c1 [Compound 22, 4‐(6‐methyl‐2‐oxo‐2,3‐dihydro‐1H‐1,3‐benzodiazol‐1‐yl)‐N‐(4‐iodophenyl)piperidine‐1‐carboxamide] | – | – | IC50 (CI95), biochemical inhibition [1, 4]: inactivity; also recorded: no effect |
| Cc1cccc2[nH]c(=O)n(C3CCN(C(=O)Nc4ccc(I)cc4)CC3)c12 [Compound 23, 4‐(7‐methyl‐2‐oxo‐2,3‐dihydro‐1H‐1,3‐benzodiazol‐1‐yl)‐N‐(4‐iodophenyl)piperidine‐1‐carboxamide] | – | 2.2 | IC50 [1, 5]: 8700 nM |
| O=C(Nc1ccc(I)cc1)N1CCC(n2c(=O)[nH]c3c(F)cccc32)CC1 [Compound 24, 4‐(4‐fluoro‐2‐oxo‐2,3‐dihydro‐1H‐1,3‐benzodiazol‐1‐yl)‐N‐(4‐iodophenyl)piperidine‐1‐carboxamide] | 2200 | 3.9 | – |

| Compound | IC50 [1, 3] [nM] | DSF stabilization (ΔT) [2] [K] | also measured |
| --- | --- | --- | --- |
| COc1cccc2c1[nH]c(=O)n2C1CCN(C(=O)Nc2ccc(I)cc2)CC1 [Compound 27, 4‐(4‐methoxy‐2‐oxo‐2,3‐dihydro‐1H‐1,3‐benzodiazol‐1‐yl)‐N‐(4‐iodophenyl)piperidine‐1‐carboxamide] | 910 | 4.2 | – |
| CN(C(=O)N1CCC(n2c(=O)[nH]c3c(Br)cccc32)CC1)c1ccc(Cl)c(Cl)c1 [Compound 29, 4‐(4‐bromo‐2‐oxo‐2,3‐dihydro‐1H‐1,3‐benzodiazol‐1‐yl)‐N‐(3,4‐dichlorophenyl)‐N‐methylpiperidine‐1‐carboxamide] | – | – | Activity against OGG1 (in words) [1]: no or a very low activity |
| O=C(Cc1ccc(I)cc1)N1CCC(n2c(=O)[nH]c3c(Br)cccc32)CC1 [Compound 30, 4‐bromo‐1‐{1‐[2‐(4‐iodophenyl)acetyl]piperidin‐4‐yl}‐2,3‐dihydro‐1H‐1,3‐benzodiazol‐2‐one] | – | – | Activity against OGG1 (in words) [1]: no or a very low activity |
| O=C(Oc1ccc(Cl)cc1)N1CCC(n2c(=O)[nH]c3c(Br)cccc32)CC1 [Compound 31, 4‐chlorophenyl 4‐(4‐bromo‐2‐oxo‐2,3‐dihydro‐1H‐1,3‐benzodiazol‐1‐yl)piperidine‐1‐carboxylate] | – | – | Activity against OGG1 (in words) [1]: no or a very low activity |
| O=C(NC1CCCCC1)N1CCC(n2c(=O)[nH]c3c(Br)cccc32)CC1 [Compound 32, 4‐(4‐bromo‐2‐oxo‐2,3‐dihydro‐1H‐1,3‐benzodiazol‐1‐yl)‐N‐cyclohexylpiperidine‐1‐carboxamide] | – | – | Activity against OGG1 (in words) [1]: only weakly active |
| O=C(c1ccc(I)cc1)N1CCC(n2c(=O)[nH]c3c(Br)cccc32)CC1 [Compound 33, 4‐bromo‐1‐[1‐(4‐iodobenzoyl)piperidin‐4‐yl]‐2,3‐dihydro‐1H‐1,3‐benzodiazol‐2‐one] | – | – | Activity against OGG1 (in words) [1]: no or a very low activity |
| O=c1[nH]c2c(Br)cccc2n1C1CCN(S(=O)(=O)c2ccc(I)cc2)CC1 [Compound 34, 4‐bromo‐1‐[1‐(4‐iodobenzenesulfonyl)piperidin‐4‐yl]‐2,3‐dihydro‐1H‐1,3‐benzodiazol‐2‐one] | – | – | Activity against OGG1 (in words) [1]: no or a very low activity |
| COc1ncc(NC(=O)N2CCC(n3c(=O)[nH]c4c(Br)cccc43)CC2)cc1C [Compound 35, 4‐(4‐bromo‐2‐oxo‐2,3‐dihydro‐1H‐1,3‐benzodiazol‐1‐yl)‐N‐(6‐methoxy‐5‐methylpyridin‐3‐yl)piperidine‐1‐carboxamide] | – | – | Activity against OGG1 (in words) [1]: only weakly active |
| O=C(Nc1ccc(I)cc1)N1CCC(n2cnc3c(Br)cccc32)CC1 [Compound 41, 4‐(4‐bromo‐1H‐1,3‐benzodiazol‐1‐yl)‐N‐(4‐iodophenyl)piperidine‐1‐carboxamide] | – | – | Activity against OGG1 (in words) [1]: neither of which had a pronounced effect on inhibiting or stabilizing OGG1 |
| O=C(Nc1ccc(I)cc1)N1CCC(n2c(=O)oc3c(Br)cccc32)CC1 [Compound 42, 4‐(7‐bromo‐2‐oxo‐2,3‐dihydro‐1,3‐benzoxazol‐3‐yl)‐N‐(4‐iodophenyl)piperidine‐1‐carboxamide] | – | – | Activity against OGG1 (in words) [1]: neither of which had a pronounced effect on inhibiting or stabilizing OGG1 |
| O=C(Nc1ccc(Cl)cc1)N1CCC(n2c(=O)[nH]c3c(Br)cccc32)CC1 [Compound 43, 4‐(4‐bromo‐2‐oxo‐2,3‐dihydro‐1H‐1,3‐benzodiazol‐1‐yl)‐N‐(4‐chlorophenyl)piperidine‐1‐carboxamide] | 350 | 4.2 | – |
| O=C(Nc1ccc([N+](=O)[O-])cc1)N1CCC(n2c(=O)[nH]c3c(Br)cccc32)CC1 [Compound 48, 4‐(4‐bromo‐2‐oxo‐2,3‐dihydro‐1H‐1,3‐benzodiazol‐1‐yl)‐N‐(4‐nitrophenyl)piperidine‐1‐carboxamide] | – | – | IC50 (CI95), biochemical inhibition [1, 4]: no effect |
| CCOC(=O)c1ccc(NC(=O)N2CCC(n3c(=O)[nH]c4c(Br)cccc43)CC2)cc1 [Compound 50, Ethyl‐4‐{[4‐(4‐bromo‐2‐oxo‐2,3‐dihydro‐1H‐1,3‐benzodiazol‐1‐yl)‐piperidine‐1‐carbonyl]‐amino}‐benzoate] | – | – | IC50 (CI95), biochemical inhibition [1, 4]: no effect |
| CC(=O)Nc1ccc(NC(=O)N2CCC(n3c(=O)[nH]c4c(Br)cccc43)CC2)cc1 [Compound 51, 4‐(4‐bromo‐2‐oxo‐2,3‐dihydro‐1H‐1,3‐benzodiazol‐1‐yl)‐N‐(4‐acetamidophenyl)piperidine‐1‐carboxamide] | – | – | IC50 (CI95), biochemical inhibition [1, 4]: no effect |
| CN(C)c1ccc(NC(=O)N2CCC(n3c(=O)[nH]c4c(Br)cccc43)CC2)cc1 [Compound 52, 4‐(4‐bromo‐2‐oxo‐2,3‐dihydro‐1H‐1,3‐benzodiazol‐1‐yl)‐N‐[4‐(dimethylamino)phenyl]piperidine‐1‐carboxamide] | 32200 | – | – |
| COc1cc(NC(=O)N2CCC(n3c(=O)[nH]c4c(OC)cccc43)CC2)ccc1C [TH9525, 4‐(4‐methoxy‐2‐oxo‐2,3‐dihydro‐1H‐1,3‐benzodiazol‐1‐yl)‐N‐(3‐methoxy‐4‐methylphenyl)piperidine‐1‐carboxamide] | 2000 | – | – |
